Test system: Taxol-induced mechanical allodynia
Assay: Taxol-induced neuropathic pain rat model, 50% paw withdrawal threshold (up-down method)
Assay type: in vivo, Sprague-Dawley rats
Settings: rats
Text: Sprague-Dawley male rats with 150-160 grams of body weight were used in the studies presented herein. Rats were trained in the enclosure one hour per day in the morning for a one week period prior to obtaining the baseline response. Whereas the mouse studies assessed percentage of response, the rat studies determined 50% of the paw withdrawal threshold, also called the up-down method as developed by Chung and colleagues. In order to obtain consistent data, naïve rats with paw withdrawal threshold no less than 4 grams were included for further studies. Taxol at a dose of 1 mg/kg (body weight) was administered daily to rats intraperitoneally. As observed in mice, the rats treated with Taxol daily developed stable mechanical allodynia on day 9 and thereafter. On day 13 and day 14 of Taxol induction, the rats pain behavior in term of 50% of paw withdrawal threshold was measured. Only those rats with paw withdrawal threshold measurements no greater than 7 grams for two consecutive days were included for drug testing. Generally speaking, the mechanical allodynia in Taxol treated rats fell in the range of 1-4 gram of paw withdrawal threshold.
1 ml per kg of body weight of either 50 mg/ml or 20 mg/ml of Compound A was administered to rats via oral gavage feeding (p.o.), to yield a dose of either 50 mg/Kg (body weight) or 20 mg/Kg (body weight). The same corresponding volume of 1% methylcellulose was used as vehicle control. 34 male Sprague-Dawely rats were employed for the study. The baseline paw withdrawal threshold (grams of force applied to the plantar area of the right hind paw) and neuropathic pain induction with daily intraperitoneal administration of 1 mg/kg (body weight) was performed as indicated in the previous section. The Taxol treatment was continued for 15 days until the pain threshold remained relatively stable. Animals with baseline greater than 4 grams and with threshold […] post induction were included in the drug testing. 27 rats met the criteria for the next step studies and were randomly assigned into four groups. Group 1 consisting of 7 rats was given 1% methylcellulose as vehicle control group, 1 ml of vehicle per kilograms of body weight was administered to animal via p.o.; group 2 with 6 animals was dosed at 20 mg/kg (body weight) of Compound A via oral gavage feeding (p.o.); group 3 with 7 rats was dosed at 50 mg/kg of Compound A, and the fourth group with 7 rats received Gabapentine at 50 mg/kg via p.o. in the same vehicle as a positive control group. Those rats were habituated in the enclosure and 50% of paw withdrawal thresholds (grams of force) were measured using a set of von Frey filaments, as described in the previous section, at time points of 1, 2, 3, 6, and 24 hours postdosing in a blinded fashion. The tester had no knowledge of which animals received drug or vehicle. It was noted that rats tested were very sleepy in the late afternoon (for 6 hour postdosing measurement), thus the data would not be reliable for 6-hour postdosing time points. […] After finishing the 24 hour postdosing measurement, the paw withdrawal threshold of each animal was calculated and data was analyzed.

[1] = 20 mg/kg p.o. in 1% methylcellulose

Compound: CC(=O)Nc1ccc(C(=O)NC(C)(C)C)cc1 [Compound A, N-tert-butyl-4-acetamidobenzamide]
- analgesic effect on neuropathic pain (in words) [1]: has an analgesic effect
- onset of analgesic effect [1]: fast onset (one-hour postdosing)
- time of peak analgesic effect postdosing [1]: 2 h
- paw withdrawal threshold (20 mg/kg p.o. in 1% methylcellulose, vehicle about 4 grams): greater than 7 grams
- pain blocking effect (in words) (50 mg/kg p.o. in 1% methylcellulose): showed a pain blocking effect at 1 hour postdosing, with the effect diminished later on
- analgesic effect compared with positive control (Compound A 20 mg/kg p.o. vs Gabapentine 50 mg/kg p.o.): comparable to the positive control

— patent publication US20040167226A1, “Methods for the treatment of pain and traumatic injury using benzamides and compositions containing the same” (priority 2002, published 2004)
